Measurements reported in patent publication US7135292B2, “Analysis and modification of gene expression in marine invertebrate cells” (Harbor Branch Oceanographic Institution, Inc., priority 2002, dated 2006).

System: Axinella corrugata cell cultures
Assay: Human-sequence microarray (Gene Filters) analysis of gene expression, PHA-treated vs untreated sponge cell cultures
Format: cell-based
Settings: PHA treated/untreated, 12 h
Text: Sponge Cells. Cells were obtained from cryopreserved stocks at Harbor Branch Oceanographic Institution. All cells were derived from Axinella corrugata specimens collected in the waters of Florida, the Bahamas, and the Caribbean Sea, and were cryopreserved according to Pomponi et al. (Pomponi et al. 1997b supra). This sponge is relatively common and easy to collect, amenable to culture efforts, and produces the bioactive compound, stevensine, in vitro (Pomponi et al. 1997b supra). Enriched fractions of dissociated sponge cells were prepared, cryopreserved, and thawed according to previously published methods (Pomponi et al. 1997b supra). Cells were incubated at 22–25° C. in a growth medium consisting of a modified and supplemented commercial formulation (Willoughby and Pomponi 2000 supra). The length of the incubation period was based on my unpublished observation of elevated DNA and protein contents (9%, P=0.034, and 9%, P=0.038, respectively) in PHA-treated cultures, according to fluorescent assays of 6 replicate comparisons (Willoughby and Pomponi 2000 supra). Since the effects were observed between 6 and 18 hours after treatment, cells were cultured for 12-hour periods representing the center point of the period of observed changes. Two sets of cultures were incubated with approximately 2×10^8 cells per T-75 flask—a control set and an experimental set treated with 1.5% phytohemagglutinin (PHA) (Life Technologies, M-form).
RNA Isolation. RNA isolation was performed on unrinsed, pelleted cells. Pellets were quickly frozen in a dry ice alcohol bath and stored at −70° C. until RNA isolation. The Qiagen RNeasy® protocol was used, with the following modifications. Samples were disrupted with a micropestle or homogenized by the rotor-stator method, using twice the recommended volume of lysis solution. Prior to column loading, samples were centrifuged through a Qiashredder® column to complete homogenization and remove insoluble material. Supernatant was collected for use in the rest of the protocol. During the first wash step, samples were incubated on the column with DNase 1 (Qiagen or Ambion) for 15 minutes. After the final wash, samples were incubated on the column with the RNase free elution water for 15 minutes prior to elution. Sub-samples were diluted 20× and quantified on a Genequant® spectrophotometer.
cDNA Labeling. Sub-samples of the isolated total RNA (8 μl) were primed with oligo dT (10–20 mer) (Research Genetics, Inc.) for 10 minutes at 70° C., then briefly chilled on ice, followed by addition of 2 volumes of RT cocktail based upon the Life Technologies Superscript II® protocol (containing dATP, dGTP, dTTP, and α-^33P dCTP [NEN Easy Tides®, 3000 Ci/mmol]). The mixture was incubated for 90 minutes at 37° C., and diluted to 100 μl for purification on a Bio-Spin column (Boi-Rad) according to the Gene Filter® (Research Genetics, Inc.) recommended protocol. The resultant labeled probes were then denatured for 3 minutes in a boiling water bath prior to incorporation into the hybridization solution.
Microarrays. Research Genetics Gene Filters®, version 211, were employed in this study. These microarrays feature over 4000 distinct sequence-verified genes spotted onto a 5×7 cm nylon membrane. The DNA at each spot represents approximately 1 kb from the 3′ end of the gene. The microarrays also include spots of total genomic DNA (see FIG. 5). The 211 series is constructed from human sequences. A cross-referenced database listing of all the genes represented on the array is available at http://www.resgen.com. The 2 genes referenced in this work carry the I.M.A.G.E. Consortium (Lennon, G. G., C. Auffray, M. Polymeropoulos and M. B. Soares 1996, Genomics 33:151–152), Clone IDs 81408 (calcineurin B) and 858292 (cdc10).
Hybridization. […]

## phytohemagglutinin [PHA]
No. 1
  Ratio, MHC class II DQ-beta associated with DR2, DQw1 protein: 0.492
No. 2
  Ratio, Collagen, type II, alpha 1 (primary osteoarthritis, spondyloepiphyseal dysplasia, congenital): 0.384
No. 3
  Ratio, Hemoglobin, alpha 1: 0.157
No. 4
  Ratio, Heat shock 60 kD protein 1 (chaperonin): 2.443
No. 5
  Ratio, Interleukin 7 receptor: 0.156
No. 6
  Ratio, Cytochrome P450, subfamily IVA, polypeptide 11: 0.310
No. 7
  Ratio, Human metallothionein I-B gene: 0.388
No. 8
  Ratio, Homo sapiens NF-E2 protein (NF-E2) mRNA, complete cds: 2.223
No. 9
  Ratio, Tissue inhibitor of metalloproteinase 1 (erythroid potentiating activity, collagenase inhibitor): 0.252
No. 10
  Ratio, Adenylate kinase 1: 0.055
No. 11
  Ratio, Oxytocin receptor: 0.084
No. 12
  Ratio, Homo sapiens mRNA for epiregulin, complete cds: 0.101
No. 13
  Ratio, Collagen, type V, alpha: 0.137
No. 14
  Ratio, MpV17 transgene, murine homolog, glomerulosclerosis: 0.319
No. 15
  Ratio, Tyrosine 3-monooxygenase/tryptophan 5-monooxygenase activation protein, zeta polypeptide: 9.835
No. 16
  Ratio, Von Hippel-Lindau syndrome: 2.707
No. 17
  Ratio, Homo sapiens TNF-alpha stimulated ABC protein (ABC50) mRNA, complete cds: 3.865
No. 18
  Ratio, Human brain mRNA for photolyase homolog, complete cds: 2.486
No. 19
  Ratio, Human BTG2 (BTG2) mRNA, complete cds: 2.431
No. 20
  Ratio, Membrane metallo-endopeptidase (neutral endopeptidase, enkephalinase, CALLA, CD10): 0.169
No. 21
  Ratio, Calcineurin B: 0.318
No. 22
  Ratio, Cell division cycle 10 (homologous to CDC10 of S. cerevisiae): 2.302
No. 23
  Ratio, Human renal cell carcinoma antigen RAGE-1 mRNA, complete putative cds: 0.477
No. 24
  Ratio, Homo sapiens putative OSP like protein mRNA, partial cds: 0.491
No. 25
  Ratio, H. sapiens mRNA for translin associated protein X: 2.631
No. 26
  Ratio, H. sapiens mRNA for phosphate cyclase: 0.395
No. 27
  Ratio, JNK activating kinase 1: 0.170
No. 28
  Ratio, Collagen, type IX, alpha 3: 47.686
No. 29
  Ratio, Non-catalytic region of tyrosine kinase: 0.233
No. 30
  Ratio, Triosephosphate isomerase 1: 0.357
No. 31
  Ratio, Calreticulin Precursor: 12.868
No. 32
  Ratio, Human transportin (TRN) mRNA, complete cds: 3.328
No. 33
  Ratio, Fanconi anemia complementation group C: 0.342
No. 34
  Ratio, Zinc finger protein basonuclin: 0.417
No. 35
  Ratio, Autosomal dominant polycystic kidney disease type II: 0.224
No. 36
  Ratio, Double-stranded RNA adenosine deaminase: 0.456
No. 37
  Ratio, Dual specificity protein phosphatase PAC-1: 0.175
No. 38
  Ratio, Homo sapiens Tax interaction protein 33 mRNA, partial cds: 0.426
No. 39
  Ratio, H. sapiens mRNA for M-phase phosphoprotein, mpp5: 2.970
No. 40
  Ratio, Nucleolysin TIA-1: 0.430
No. 41
  Ratio, Homo sapiens mRNA for ISLR, complete cds: 12.597
No. 42
  Ratio, H. sapiens mRNA for M130 antigen: 0.443
No. 43
  Ratio, Human tRNA-guanine transglycosylase mRNA, complete cds: 0.213
No. 44
  Ratio, Homo sapiens mRNA for vesicle associated membrane protein 2 (VAMP2): 3.925
No. 45
  Ratio, Erythrocyte membrane protein band 4.9 (dematin): 0.408
No. 46
  Ratio, 6-Pyruvol tetrahydrobiopterin synthase: 0.440
No. 47
  Ratio, Villin: 0.008
No. 48
  Ratio, Multidrug reistance protein 1: 3.272
No. 49
  Ratio, Human histone H2B.1 mRNA, 3′ end: 0.247
No. 50
  Ratio, Human heregulin-betal gene, complete cds: 5.582
No. 51
  Ratio, Amyloid P component, serum: 3.994
No. 52
  Ratio, Alternative guanine nucleotide-binding regulatory protein (G) alpha-inhibitory-subunit: 0.462
No. 53
  Ratio, Ribosomal protein S6 kinase, 90 kD, polypeptide 2: 0.252
No. 54
  Ratio, Interleukin 15 receptor alpha chain: 3.996
No. 55
  Ratio, Cadherin 11 (OB-cadherin): 0.425
